Experimental data as given in the supplement of paper PMC10307832.

Columns and labels:
Test in all cases: relative viability (nuclei count vs DMSO), 5 days (fraction); higher = more cells survive
[1] = compound: CC1=CC=C(C=C1)C(=O)CN2C3=C(CCCC3)SC2=N [Pifithrin_alpha] + Cc1cc(Nc2cc(N3CCN(C)CC3)nc(Sc3ccc(NC(=O)C4CC4)cc3)n2)n[nH]1 [Tozasertib] (partner 0.1 µM)
Summary of the method: (§1)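 Medians of duplicate plates are given as relative viability. That measure is the nuclei count in treated wells divided by the count in vehicle wells. Counts were taken on 4× images of lung cancer cell lines in 1536-well plates, 5 days after pin-tool dosing the day after seeding with one drug alone or a fixed anchor-drug dose plus five library-drug doses (not always all listed) in √10 steps.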

[2] = compound: Nc1nc(Nc2ccc3c(c2)CC[C@@H](N2CCCC2)CC3)nn1-c1cc2c(nn1)-c1ccccc1CCC2 [Bemcentinib] + COc1cc2c(Oc3ccc(NC(=O)C4(C(=O)Nc5ccc(F)cc5)CC4)cc3F)ccnc2cc1OCCCN1CCOCC1 [Foretinib] (partner 0.25 µM)
Summary of the method: as §1

[3] = compound: CC1=CC=C(C=C1)C(=O)CN2C3=C(CCCC3)SC2=N [Pifithrin_alpha] + CC(=O)Nc1cccc(-n2c(=O)n(C3CC3)c(=O)c3c(Nc4ccc(I)cc4F)n(C)c(=O)c(C)c32)c1 [Trametinib] (partner 0.02 µM)
Summary of the method: as §1

[4] = compound: CC1=CC=C(C=C1)C(=O)CN2C3=C(CCCC3)SC2=N [Pifithrin_alpha] + COc1cc2c(Oc3ccc(NC(=O)C4(C(=O)Nc5ccc(F)cc5)CC4)cc3F)ccnc2cc1OCCCN1CCOCC1 [Foretinib] (partner 0.25 µM)
Summary of the method: as §1

Cell Line | relative viability ([1]; first compound 1 µM) | relative viability ([1]; first compound 3.162 µM) | relative viability ([1]; first compound 10 µM) | relative viability ([1]; first compound 31.62 µM) | relative viability ([1]; first compound 100 µM) | relative viability ([2]; first compound 0.04 µM) | relative viability ([2]; first compound 0.1265 µM) | relative viability ([2]; first compound 0.4 µM) | relative viability ([2]; first compound 1.265 µM) | relative viability ([2]; first compound 4 µM) | relative viability ([3]; first compound 3.162 µM) | relative viability ([3]; first compound 10 µM) | relative viability ([3]; first compound 100 µM) | relative viability ([4]; first compound 1 µM) | relative viability ([4]; first compound 3.162 µM) | relative viability ([4]; first compound 10 µM) | relative viability ([4]; first compound 31.62 µM) | relative viability ([4]; first compound 100 µM) | relative viability ([3]; first compound 1 µM) | relative viability ([3]; first compound 31.62 µM)
NCI-H1395 | 0.642 | 0.755 | 0.657 | 0.627 | 0.688 | 0.994 | 1.05 | 1.04 | 0.934 | 1.05 | 1.03 | 1.11 | 1.19 | 0.899 | 0.98 | 0.975 | 0.748 | 0.712 |  | 
NCI-H727 | 0.505 | 0.657 | 0.52 |  | 0.579 | 0.881 | 1.09 | 0.935 | 0.88 | 1.03 | 0.403 | 0.388 | 0.361 | 0.903 | 0.759 | 0.837 |  | 0.75 | 0.374 | 0.409
NCI-H838 | 0.265 | 0.24 | 0.237 | 0.222 | 0.208 | 1.05 | 1.15 | 1.21 | 1.11 | 1.18 | 0.425 | 0.452 | 0.391 | 1.06 | 0.933 | 0.991 | 0.8 | 0.762 | 0.458 | 0.391
NCI-H1755 | 0.67 | 0.449 | 0.492 | 0.424 | 0.54 | 0.925 | 0.923 | 0.947 | 0.987 | 0.935 | 0.682 | 0.706 | 0.738 | 0.819 | 0.833 | 0.849 | 0.674 | 0.862 | 0.724 | 0.694
EMC-BAC-2 | 0.272 | 0.288 | 0.283 |  | 0.248 | 0.972 | 1.02 | 1.04 | 1.03 | 1.06 | 0.89 |  | 0.794 | 0.912 | 0.932 | 0.968 |  | 0.818 |  | 0.706
EKVX | 0.532 |  | 0.349 | 0.245 | 0.349 | 0.837 | 0.488 | 0.842 | 1.11 | 0.834 | 0.532 | 0.269 | 0.21 | 0.744 |  | 0.736 | 0.731 | 0.636 | 0.394 | 0.28
NCI-H647 | 0.339 | 0.382 | 0.288 | 0.188 | 0.145 | 1.33 | 1.22 | 1.24 | 1.49 | 1.2 | 0.335 | 0.332 | 0.496 | 1.07 | 1.25 | 1.04 | 0.724 | 1.11 | 0.391 | 0.344
